Data as given in patent US11730714B2, “Compounds for the treatment of neuromuscular disorders” (NMD PHARMA A/S, priority 2017, dated 2023).

Assays:
Assay type in all cases: cell-based
[1] = tested on: isolated rat soleus muscles; test: Recovery of nerve-stimulated force in isolated rat soleus muscles exposed to sub-maximal tubocurarine; details: 9-AC added after tubocurarine; nerve stimulation by suction electrode, 60 Hz
Protocol: (§1) Experiments were performed using rat soleus muscles from either young (4-wk-old) or adult Wistar rats (12-14-week-old). Animal handling, killing and isolation of muscle is described elsewhere All experiments were performed using normal Krebs-Ringer bicarbonate solution (NKR). In solutions with elevated Mg^2+, MgCl2 was added to NKR-solution causing minor increases in osmolarity and ionic strength. In solutions with elevated K^+, 4 mM NaCl was replaced by 4 mM KCl in the NKR.
In all contraction experiments, isometric force production was determined and force produced during contractions was quantified by measuring the integral of the force response (AUC). Stimulation and force recordings have been described elsewhere. […] In these latter experiments, extracellular recordings of action potentials (M-waves) could be measured without temporal overlap with stimulation artefacts.
(§2) The aim was to find compounds that by inhibition of CIC-1 channels can recover nerve-stimulated force under conditions of fatigue including conditions where fatigue is caused by compromised neuromuscular transmission. Neuromuscular transmission dysfunction can develop because of both pre- and/or post-synaptic complications in connection with a disorder or as part of neuromuscular blockade during/after surgery. In the initial series of drug testing, experiments were performed with isolated muscles in the presence of sub-maximal ACh receptor antagonist tubocurarine. Since the inclusion of tubocurarine caused a partial loss of neuromuscular transmission this experiment mimics the conditions in myasthenia gravis and neuromuscular blockade. To mimic conditions with pre-synaptic complication (Lambert Eaton syndrome, motor neuron disorder, polyneuropathy) the intact nerve-muscle preparations were incubated at elevated extracellular Mg^2+, which is known to suppress release of ACh from nerve terminals of motor neurons.
The experiments also illustrate that field stimulation of the entire nerve-muscle preparation selectively activates the motor nerve when short-duration pulses (0.02 vs 0.2 ms) were used. In FIG. 1A the preparation was stimulated either via field stimulation or via nerve-stimulation using a suction electrode. With the suction electrode only the nerve could be stimulated. When exposed to a submaximal concentration of the ACh receptor antagonist tubocurarine (0.2 μM) a clear drop in peak force and a further decline (or fade) in force during the stimulation developed. This drop in force clearly reflected compromised neuromuscular transmission, as the decline in peak force and fading were not seen with direct stimulation of the muscle. […] Thus, loss of M-wave and force with tubocurarine reflected partial blockade of neuromuscular function. Such fading of force and M-waves during stimulation represent clinical hallmarks of both myasthenia gravis and neuromuscular blockade in connection with surgery. In FIG. 1B, observations with normal (0.2 ms) and short-duration (0.02 ms) pulses have been compared. It can be seen that only with short-duration pulses did tubocurarine cause a decline in peak force and fading (FIG. 1B). This confirms that short-duration pulses in field stimulation could be used as specific nerve-stimulation. […] Elevated extracellular Mg^2+ could thus be used to partially block neuromuscular transmission and thus be used as a model of conditions with compromised pre-synaptic function (Lambert Eaton syndrome, amyotrophic lateral sclerosis, spinal muscular atrophy). […]

[2] = tested on: isolated rat soleus muscles; test: Recovery of nerve-stimulated force in isolated rat soleus muscles exposed to 3.5 mM Mg2+; details: 9-AC added at 3.5 mM Mg2+; nerve stimulation by suction electrode, 60 Hz
Protocol: as §1
as §2, with “Since the inclusion of tubocurarine caused a partial loss of neuromuscular transmission this experiment mimics the conditions in myasthenia gravis and neuromuscular blockade.” left out

[3] = tested on: isolated rat muscle; test: Measurement of force in an in vitro model: isolated rat soleus nerve-muscle preparation, 115 nM tubocurarine; details: 50 μM compound after 90 min in tubocurarine
Protocol: FIGS. 12A-12B. […] Force traces from a representative muscle stimulated to contract in 1) control condition before addition of neuromuscular blocking agent, 2) the force response to stimulation after 90 minutes incubation with Tubocurarine. […] The traces presented in FIG. 12A (1, 2, 3), correspond to the dotted lines in FIG. 12B, respectively.
Recovery of force is quantified as the percentage of the force prior to tubocurarine that is recovered by the compound.
The current invention relates to compounds that inhibit CIC-1 ion channels and increase muscle excitability and thereby improve muscle function in clinical conditions where muscle activation is failing. Such conditions result in loss of contractile function of skeletal muscle, weakness and excessive fatigue. […]
Experimentally, soleus muscles from 4-5 wk old rats were isolated with the motor nerve remaining attached. […] Stimulation of the motor nerve led to activation of the muscle fibres and ensuing force production that was recorded.
After mounting the nerve-muscle preparation in the experimental setup, the contractile function of the muscle was initially assessed under the control conditions (FIG. 2A). […] To quantify the ability of the compound to restore force the percentage of the initial force that was restored was determined after 40 mins of compound exposure (FIG. 2B) and the point increase is reported in Table 8.

O=C(O)c1c2ccccc2cc2ccccc12 [Compound 9-AC, 9-anthracenecarboxylic acid, reference compound]
recovery of force and M-wave signal [1]: marked recovery of both force and M-wave signal
recovery of force and M-wave signal [2]: marked recovery of both force and M-wave signal

O=C(O)[C@H](CF)Oc1ccc(Br)cc1F [Compound A-19, (2R)-2-(4-bromo-2-fluorophenoxy)-3-fluoropropanoic acid]
recovery of force (in words) [3]: subsequently recovered
